Measurements: patent US9115073B2, “1,3-diphenylpropane derivatives, preparations and uses thereof” (GENFIT, priority 2011, dated 2015)

Legend:
Format in all cases: cell-based
[1] = biological target: T1, hPPARgamma (Homo sapiens, UniProt P37231); assay: Gal4-hPPARgamma transactivation assay in COS-7 cells (luciferase); conditions: for Gal4-hPPARγ(LBD) TOP (% ref): maximal relative activation vs reference; for Emax: COS-7, maximal relative activation vs reference, read-out: Gal4-hPPARγ(LBD) TOP (% ref); for EC50: Gal4-hPPARγ(LBD) transactivation
T1 construct: Gal4-hPPARγ(LBD); Gal4 (fusion partner); expressed in transfected cells; host or cells: COS-7 (monkey kidney)
T1 sequence (P37231 238-503 limits assumed): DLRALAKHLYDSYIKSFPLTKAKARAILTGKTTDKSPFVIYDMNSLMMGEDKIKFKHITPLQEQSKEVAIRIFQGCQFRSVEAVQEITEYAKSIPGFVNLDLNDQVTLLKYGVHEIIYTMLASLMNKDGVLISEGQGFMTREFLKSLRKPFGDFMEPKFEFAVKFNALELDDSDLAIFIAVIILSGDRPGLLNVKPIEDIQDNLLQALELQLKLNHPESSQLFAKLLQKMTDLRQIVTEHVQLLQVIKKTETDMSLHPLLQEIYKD
Protocol: (§1) Monkey kidney COS-7 cells were maintained in standard culture conditions (Dulbecco's modified Eagle's minimal medium: DMEM) supplemented with 10% fetal calf serum, 1% sodium pyruvate, 1% essential amino acids and 1% antibiotics at 37° C. in a humidified atmosphere of 5% C02 and 95% air. The medium was changed every 2 days. All tested compounds were dissolved in DMSO. Cells were transfected using 2 μl JetPEI™ (Polyplus transfection)/μg of DNA. Briefly, 40 μg of DNA was transfected in a 225 cm^2 culture flask of adherent COS-7 cells (respecting the 1/50 ratio between the Gal4(RE)_TkpGL3 plasmid and the plasmid coding the nuclear receptor of interest (pGal4-hPPARalpha, pGal4-hPPARgamma, pGal4-hPPARdelta, pGal4-mPPARalpha, pGal4-mPPARgamma and pGal4-mPPARdelta) or of the pGal4phi plasmid (negative control). Cells were enzymatically detached and seeded in 384 well plates at the density of 20,000 cells/well and then incubated for 4 hours at 37° C. The activation was automatically performed, by using the Genesis Freedom 200™ (Tecan), in fresh medium supplemented with 2% of synthetic serum, free of lipids (Ultroser™, Biosepra) supplemented with the tested compounds (compound of interest or reference molecules) or vehicle (DMSO 0.1%). The luciferase activity was measured with the Steady-Glo Luciferase Assay System (Promega, Madison, Wis.). All transactivation experiments were performed at least 2 times. Activation curves were realized using SigmaPlot® (version 7.0 from SPSS Inc.) software and took into account all the experimental points. SimgaPlot® was also used to fit the standard curves and then determine the specific EC50 values, maximum effect versus reference molecules and Hill slope. The Emax effect of each new ligand is represented as the ratio of the maximal induction (plateau) obtained with the new ligand and the induction obtained with the corresponding reference compound. The reference compounds for PPARalpha, PPARgamma and PPARdelta were fenofibrate (100 μM), rosiglitazone (10 μM) and GW501516 (1 μM).

[2] = biological target: T2, hPPARalpha (Homo sapiens, UniProt Q07869); assay: Gal4-hPPARalpha transactivation assay in COS-7 cells (luciferase); conditions: for Gal4-hPPARα(LBD) TOP (% ref): maximal relative activation vs reference; for Emax: COS-7, maximal relative activation vs reference, read-out: Gal4-hPPARα(LBD) TOP (% ref); for EC50: Gal4-hPPARα(LBD) transactivation
T2 construct: Gal4-hPPARα(LBD); Gal4 (fusion partner); expressed in transfected cells; host or cells: COS-7 (monkey kidney)
T2 sequence (Q07869 239-466 limits assumed): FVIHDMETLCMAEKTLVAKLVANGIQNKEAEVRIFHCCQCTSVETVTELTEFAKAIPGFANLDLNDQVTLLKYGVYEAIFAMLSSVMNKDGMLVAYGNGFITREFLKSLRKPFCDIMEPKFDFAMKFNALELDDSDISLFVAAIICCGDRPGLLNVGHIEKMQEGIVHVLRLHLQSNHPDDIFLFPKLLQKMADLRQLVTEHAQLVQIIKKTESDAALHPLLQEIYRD
Protocol: as §1

[3] = biological target: T3, hPPARdelta (Homo sapiens, UniProt Q03181); assay: Gal4-hPPARdelta transactivation assay in COS-7 cells (luciferase); conditions: for Gal4-hPPARδ(LBD) TOP (% ref): maximal relative activation vs reference; for Emax: COS-7, maximal relative activation vs reference, read-out: Gal4-hPPARδ(LBD) TOP (% ref); for EC50: Gal4-hPPARδ(LBD) transactivation
T3 construct: Gal4-hPPARδ(LBD); Gal4 (fusion partner); expressed in transfected cells; host or cells: COS-7 (monkey kidney)
T3 sequence (Q03181 211-439 limits assumed): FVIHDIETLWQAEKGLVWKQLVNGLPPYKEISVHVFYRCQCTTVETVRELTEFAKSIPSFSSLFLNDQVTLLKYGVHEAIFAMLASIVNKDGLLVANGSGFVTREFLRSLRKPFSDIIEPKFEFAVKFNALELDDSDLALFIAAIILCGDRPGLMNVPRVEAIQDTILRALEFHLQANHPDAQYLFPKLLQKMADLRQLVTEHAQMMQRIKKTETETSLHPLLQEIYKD
Protocol: as §1

| Compound | Gal4-hPPARγ(LBD) TOP (% ref) [1] [% ref] | Gal4-hPPARα(LBD) TOP (% ref) [2] [% ref] | Gal4-hPPARδ(LBD) TOP (% ref) [3] [% ref] | Emax [1] [%] | EC50 [1] [nM] | Emax [2] [%] | EC50 [2] [nM] | Emax [3] [%] | EC50 [3] [nM] |
| --- | --- | --- | --- | --- | --- | --- | --- | --- | --- |
| COC(c1ccc(SC)cc1)C1CC1c1cc(C)c(OC(C)(C)C(=O)O)c(C)c1 (single isomer, unassigned) [Cpd 3-1, 2-(4-(2-(methoxy(4-(methylthio)phenyl)methyl)cyclopropyl)-2,6-dimethylphenoxy)-2-methylpropanoic acid] |  |  |  | 79 | 35 | 57 | 105 | 77 | 54 |
| COC(c1ccc(SC)cc1)C1CC1c1cc(C)c(OC(C)(C)C(=O)O)c(C)c1 (single isomer, unassigned) [Cpd 3-2, 2-(4-(2-(methoxy(4-(methylthio)phenyl)methyl)cyclopropyl)-2,6-dimethylphenoxy)-2-methylpropanoic acid] |  |  |  |  | 18 |  | 139 |  | 169 |
| CCCCOC(c1ccc(OC(F)(F)F)cc1)C1CC1c1cc(C)c(OC(C)(C)C(=O)O)c(C)c1 (single isomer, unassigned) [Cpd 5-1, 2-(4-(2-(butyloxy(4-(trifluoromethoxy)phenyl)methyl)cyclopropyl)-2,6-dimethylphenoxy)-2-methylpropanoic acid] |  |  |  | 84 | 143 | 44 | 47 | 62 | 34 |
| CCCCOC(c1ccc(OC(F)(F)F)cc1)C1CC1c1cc(C)c(OC(C)(C)C(=O)O)c(C)c1 (single isomer, unassigned) [Cpd 5-2, 2-(4-(2-(butyloxy(4-(trifluoromethoxy)phenyl)methyl)cyclopropyl)-2,6-dimethylphenoxy)-2-methylpropanoic acid] |  |  |  |  | 21 |  | 54 |  | 57 |
| Cc1cc(C2CC2C(OCc2ccccc2)c2ccc(OC(F)(F)F)cc2)cc(C)c1OC(C)(C)C(=O)O (single isomer, unassigned) [Cpd 11-1, 2-(4-(2-(benzyloxy(4-(trifluoromethoxy)phenyl)methyl)cyclopropyl)-2,6-dimethylphenoxy)-2-methylpropanoic acid] |  |  |  | 86 | 116 | 46 | 21 | 75 | 79 |
| Cc1cc(C2CC2C(OCc2ccccc2)c2ccc(OC(F)(F)F)cc2)cc(C)c1OC(C)(C)C(=O)O (single isomer, unassigned) [Cpd 11-2, 2-(4-(2-(benzyloxy(4-(trifluoromethoxy)phenyl)methyl)cyclopropyl)-2,6-dimethylphenoxy)-2-methylpropanoic acid] |  |  |  |  | 23 |  | 100 |  | 122 |
| COC(c1ccc(C(F)(F)F)cc1F)C1CC1c1cc(C)c(OC(C)(C)C(=O)O)c(C)c1 (single isomer, unassigned) [Cpd 12-1, 2-(4-(2-(methoxy(2-fluoro-4-(trifluoromethyl)phenyl)methyl)cyclopropyl)-2,6-dimethylphenoxy)-2-methylpropanoic acid] |  |  |  | 71 | 12 | 47 | 53 | 89 | 7 |
| COC(c1ccc(C(F)(F)F)cc1F)C1CC1c1cc(C)c(OC(C)(C)C(=O)O)c(C)c1 (single isomer, unassigned) [Cpd 12-2, 2-(4-(2-(methoxy(2-fluoro-4-(trifluoromethyl)phenyl)methyl)cyclopropyl)-2,6-dimethylphenoxy)-2-methylpropanoic acid] |  |  |  |  | 3 |  | 90 |  | 13 |
| COC(c1ccccc1OC(F)(F)F)C1CC1c1cc(C)c(OC(C)(C)C(=O)O)c(C)c1 (single isomer, unassigned) [Cpd 13-1, 2-(4-(2-(methoxy(2-(trifluoromethyloxy)phenyl)methyl)cyclopropyl)-2,6-dimethylphenoxy)-2-methylpropanoic acid] |  |  |  | 72 | 72 | 26 | 652 | 59 | 328 |

Other lines, results leading:

| Gal4-hPPARγ(LBD) TOP (% ref) [1] [% ref] | Gal4-hPPARα(LBD) TOP (% ref) [2] [% ref] | Gal4-hPPARδ(LBD) TOP (% ref) [3] [% ref] | Emax [1] [%] | EC50 [1] [nM] | Emax [2] [%] | EC50 [2] [nM] | Emax [3] [%] | EC50 [3] [nM] | Compound |
| --- | --- | --- | --- | --- | --- | --- | --- | --- | --- |
| 69 | 31 | 96 |  |  |  |  |  |  | COC(c1ccc(OC(F)(F)F)cc1)C1CC1c1ccc(OC(C)(C)C(=O)O)c(C(C)C)c1 (racemic) [Cpd 15-2, 2-(2-isopropyl-4-(2-(methoxy(4-(trifluoromethoxy)phenyl)methyl)cyclopropyl)phenoxy)-2-methylpropanoic acid] |
| 88 | 50 | 71 |  |  |  |  |  |  | COC(c1ccc(C(F)(F)F)cc1C(F)(F)F)C1CC1c1cc(C)c(OC(C)(C)C(=O)O)c(C)c1 (racemic) [Cpd 16-2, 2-(4-(2-((2,4-bis(trifluoromethyl)phenyl)(methoxy)methyl)cyclopropyl)-2,6-dimethylphenoxy)-2-methylpropanoic acid] |
|  |  |  | 75 | 12 | 49 | 38 | 86 | 6 | COc1cc(OC(F)(F)F)ccc1C(OC)C1CC1c1cc(C)c(OC(C)(C)C(=O)O)c(C)c1 (racemic) [Cpd 17-1, 2-(4-(2-(methoxy(2-methoxy-4-(trifluoromethoxy)phenyl)methyl)cyclopropyl)-2,6-dimethylphenoxy)-2-methylpropanoic acid] |
|  |  |  | 84 | 26 | 44 | 59 | 78 | 157 | CCCCCCOc1ccccc1C(OC)C1CC1c1cc(C)c(OC(C)(C)C(=O)O)c(C)c1 (racemic) [Cpd 18-1, 2-(4-(2-((2-(hexyloxy)phenyl)(methoxy)methyl)cyclopropyl)-2,6-dimethylphenoxy)-2-methylpropanoic acid] |
|  |  |  | 64 | 97 | 53 | 157 | 100 | 26 | COC(c1ccc(OC(F)(F)F)cc1)C1CC1c1ccc(OC(C)(C)C(=O)O)c(Br)c1 (racemic) [Cpd 19-1, 2-(2-bromo-4-(2-(methoxy(4-(trifluoromethoxy)phenyl)methyl)cyclopropyl)phenoxy)-2-methylpropanoic acid] |
|  |  |  | 67 | 230 | 50 | 143 | 84 | 87 | COC(c1ccc(OC(F)(F)F)cc1)C1CC1c1cc(F)c(OC(C)(C)C(=O)O)c(F)c1 (racemic) [Cpd 20-1, 2-(2,6-difluoro-4-(2-(methoxy(4-(trifluoromethoxy)phenyl)methyl)cyclopropyl)phenoxy)-2-methylpropanoic acid] |
|  |  |  | 48 | 828 | 17 | 3650 | 88 | 3270 | COC(c1ccc(OC(F)(F)F)cc1)C1CC1c1ccc(OC(C)(C)C(=O)O)c(C2CC2)c1 (racemic) [Cpd 21-1, 2-(2-cyclopropyl-4-(2-(methoxy(4-(trifluoromethoxy)phenyl)methyl)cyclopropyl)phenoxy)-2-methylpropanoic acid] |
